Source: patent US6664251B2, “Benzothiazine derivative” (Daiichi Suntory Pharma Co., Ltd., priority 1993, dated 2003)

Legend:
serotonin-2 receptor = test: Anti-serotonin action (anti-5-HT action): contraction of isolated superior mesenteric artery induced by serotonin; conditions: contraction induced by 10^−5 M serotonin (5-HT) taken as 100%, Hartley male guinea pig superior mesenteric artery; for Anti 5-HT action (% of Control) 10^−6 M: test drug 10^−6 M; for Anti 5-HT action (% of Control) 10^−7 M: test drug 10^−7 M
Protocol: (1) Anti-Serotonin Action (Anti-5-HT Action)
A preparation cut in a helical form was suspended under 0.3 g load in a Magnus cylinder filled with the Tyrode solution which had been aerated with a gas mixture of 95% O2+5% CO2 and maintained at 37° C. Using an isometric transducer (“UL-10”, manufactured by SHINKOH K.K.) and a pressure preamplifier (“DSA-605A”, manufactured by SHINKOH K.K.), variations in tension were measured. The isometric tensions were recorded on a pen-writing recorder (“VP-6537A”, manufactured by NATIONAL K.K.). Taking the contraction induced by 10^−5 M serotonin (5-HT) as 100%, the percent contractions in the presence of each test drug at 10^−7 and 10^−6 M were determined as anti-5-HT action.

α1 receptor = test: Anti-α1 action: tonic contraction of isolated thoracic aorta induced by norepinephrine; conditions: tonic contraction induced by 10^−5 M norepinephrine (NE) taken as 100%, Hartley male guinea pig thoracic aorta; for Anti α1 action (% of Control) 10^−7 M: test drug 10^−7 M; for Anti α1 action (% of Control) 10^−8 M: test drug 10^−8 M
Protocol: The thoracic aorta of each Hartley male guinea pig (body weight: 300-500 g) was excised. A preparation cut in a helical form was suspended under 1 g load in a Magnus cylinder filled with the Tyrode solution which had been aerated with a gas mixture of 95% O2+5% CO2 and maintained at 37° C. Using an isometric transducer (“TB-612J”, manufactured by NIHON KOHDEN) and a pressure preamplifier (“AP-620G”, manufactured by NIHON KOHDEN), variations in tension were measured. The isometric tensions were recorded on a thermal pen-writing recorder (“WT-647G”, manufactured by NIHON KOHDEN).
Taking the tonic contraction induced by 10^−5 M norepinephrine (NE) as 100%, the percent contractions upon addition of each test drug at 10^−8 and 10^−7 M were determined as anti-α1 action.

| SMILES | Anti 5-HT action (% of Control) 10^−6 M (serotonin-2 receptor) | Anti 5-HT action (% of Control) 10^−7 M (serotonin-2 receptor) | Anti α1 action (% of Control) 10^−7 M (α1 receptor) | Anti α1 action (% of Control) 10^−8 M (α1 receptor) |
| --- | --- | --- | --- | --- |
| O=S1(=O)c2ccccc2C2(CN1CCCN1CCN(c3ccc(F)cc3)CC1)SCCS2 [Compound No. 66, 2-[3-[4-(4-fluorophenyl)piperazin-1-yl]propyl]-3,4-dihydro-2H-1,2-benzothiazine-4-spiro-2′-(1′,3′-dithiolan) 1,1-dioxide] | 2.8 % of Control | 66.6 % of Control | 86.5 % of Control | 100 % of Control |
| COc1cccc2c1C1(CN(CCCN3CCN(c4ccc(F)cc4)CC3)S2(=O)=O)SCCS1 [Compound No. 123, 2-[3-[4-(4-fluorophenyl)piperazin-1-yl]propyl]-5-methoxy-3,4-dihydro-2H-1,2-benzothiazine-4-spiro-2′-(1′,3′-dithiolane) 1,1-dioxide] |  | 49.3 % of Control | 13.0 % of Control | 97.9 % of Control |
| COc1cccc2c1C1(CN(CCCN3CCN(c4ccc(O)cc4)CC3)S2(=O)=O)OCCO1 [Compound No. 111, 2-[3-[4-(4-hydroxyphenyl)piperazin-1-yl]propyl]-5-methoxy-3,4-dihydro-2H-1,2-benzothiazin-4-one 1,1-dioxide ethylene acetal] |  | 10.9 % of Control | 98.6 % of Control | 100.9 % of Control |
| COC1CN(CCCN2CCN(c3ccc(F)cc3)CC2)S(=O)(=O)c2ccccc21 (centres unmarked) [Compound No. 57, 2-[3-[4-(4-fluorophenyl)piperazin-1-yl]propyl]-4-methoxy-3,4-dihydro-2H-1,2-benzothiazine 1,1-dioxide] | 10.0 % of Control | 22.0 % of Control | 81.6 % of Control | 97.3 % of Control |
